One test deals with PPARα. On the set-up: method as in ToxCast database released in October 2015. The note with it: active/inactive call; ref ToxCast database released in October 2015; cited from earlier work.
In a further test the test system is AR. On the set-up: method as in ToxCast database released in October 2015. The note with it: active/inactive call; ref ToxCast database released in October 2015; cited from earlier work.
The target in test [1] is T1, PPARγ ligand binding domain (204–477) (Homo sapiens, UniProt P37231).
T1 construct: GST (N, cleaved yes); made in house; host or cells: E. coli BL21(DE3)
T1 sequence (P37231 204-477 isoform P37231-2): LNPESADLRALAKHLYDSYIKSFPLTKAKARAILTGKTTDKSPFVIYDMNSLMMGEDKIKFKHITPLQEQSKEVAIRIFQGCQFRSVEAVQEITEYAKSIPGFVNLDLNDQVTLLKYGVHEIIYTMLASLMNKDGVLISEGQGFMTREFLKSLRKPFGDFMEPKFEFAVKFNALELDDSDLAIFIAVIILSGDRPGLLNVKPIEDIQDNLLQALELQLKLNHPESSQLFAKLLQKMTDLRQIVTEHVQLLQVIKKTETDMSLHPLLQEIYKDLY
In words: Surface plasmon resonance (SPR) analysis of fatty acid binding to immobilized PPARγ LBD. The note with it: for Rmax: SPR steady-state fit, FUA: chip coupled with 12000RU; for binding to PPARγ in SPR (in words): compared with DHA and EPA; for pKd: steady-state fit, Biacore T200, chip about 6500 RU (FUA: chip coupled with 12000RU PPARγ LBD). Here is the method: The protein was firstly purified using a glutathione Sephararose 4B column, followed by PreScission protease cleavage to remove the GST-tag. […] The finally collected protein in 20 mM Tirs, pH8.0, 150 mM NaCl and 2 mM DTT was concentrated to 20 mg/ml. The purity was checked by SDS-PAGE and protein was stored at − 80 °C for use.
PPARγ (0.05 mg/ml) were coupled onto CM5 sensor chips according to amine coupling procedure from the manufacturer’s manual. […] A reference channel was generated at same conditions without protein injection and used as a blank control to correct the instrument or buffer artifacts. Fatty acids were dissolved in DMSO and diluted with concentration ranging from 0.78 to 50 μM, and injected at a flowrate of 40 μL/min. Each sensorgram consists of an association phase (120 s), indicating the binding of the injected compound to the protein, followed by a dissociation phase (300 s) during which the running buffer (10 mM phosphate buffer, 150 mM NaCl, 5% DMSO, 0.05% Tween 20, pH 7.4) is passed over and the bound compounds were eluted from the chip surface. The Kd was calculated by steady-state binding fitting method in Biacore T200 evaluate the software.
In general terms: In SPR one partner is held on a chip, and binding of the other changes the refractive index at the surface.

The next test has as its system RORγ. On the set-up: method as in ToxCast database released in October 2015. The note with it: active/inactive call; ref ToxCast database released in October 2015; cited from earlier work.
The next test concerns GR. On the set-up: method as in ToxCast database released in October 2015. The note with it: active/inactive call; ref ToxCast database released in October 2015; cited from earlier work.
The test system of a further test is PR. Also noted: method as in ToxCast database released in October 2015. The note with it: active/inactive call; ref ToxCast database released in October 2015; cited from earlier work.

pKd: −log10 of the molar value. “Also recorded” adds a separate entry of the source. Where only a bound is given, the exact number is not on record here.

As to `CN1CCc2cccc3c2[C@H]1Cc1ccc(O)c(O)c1-3` [apomorphine, reference compound], the “ToxCast activity against PPARα” value in the test on PPARα is “active”.
In the case of `CC1(C)CCC(=Cc2ccc(Cl)cc2)C1(O)Cn1cncn1` (centres unmarked) [triconazole], in the test with AR, the “ToxCast activity against AR” value is “active”.
What is called pKd is the Kd on a negative log10 scale, so that one unit is a factor of ten. As for `CCCCCc1cc(C)c(CCCCCCCCC(=O)O)o1` [FNA, 10,13-epoxy-11-methyloctadeca-10,12-dienoic acid], in test [1], the Rmax is 38.55 RU; the “binding to PPARγ in SPR (in words)” value was “stronger binding than DHA and EPA”; the pKd was 3.87.
With `Oc1ccc(/C=C/c2cc(O)cc(O)c2)cc1` [reservertol], in the test on RORγ, the “ToxCast activity against RORγ” value is “active”.
As to `Cl.N=C1C=CC(=C(c2ccc(N)cc2)c2ccc(N)cc2)C=C1` [parafuchsin], the “ToxCast activity against RORγ” value in the test on RORγ was “active”.
Take `CCCCCC[C@@H](O)C/C=C\CCCCCCCC(=O)O` [ROA, ricinoleic acid]: in test [1], the Rmax is listed as > 10,000.00 RU, the “binding to PPARγ in SPR (in words)” value was “weaker binding than DHA” and the negative logarithm of the Kd (pKd) was less than 2.00.
`O=C(c1ccc(O)cc1O)c1ccc(O)cc1O` [tetrahydroxybenzophenone]: the “ToxCast activity against AR” value in the test with AR is on record as “active”.
Consider `CC(C)c1cccc(C(C)C)c1N1C(=O)c2ccc(O)cc2C1=O` [5HPP-33], for which the “ToxCast activity against RORγ” value with RORγ was “active”.
In the case of eicosatrienoic acid [ESA], in test [1], the Rmax was > 10,000.00 RU, the “binding to PPARγ in SPR (in words)” value is reported as “weaker binding than DHA” and the pKd was less than 2.00.
`CCOC(=O)C(C)OC(=O)c1cc(Oc2ccc(C(F)(F)F)cc2Cl)ccc1[N+](=O)[O-]` (centres unmarked) [lactofen]: the “ToxCast activity against AR” value in the test with AR was “active”.
As to `O=c1c(O)c(-c2ccc(O)cc2O)oc2cc(O)cc(O)c12` [morin], in the test with PPARα, the “ToxCast activity against PPARα” value is recorded as “active”.
Turning to `CC/C=C\C/C=C\C/C=C\C/C=C\C/C=C\CCCC(=O)O` [EPA, Eicosapentaenoic acid, reference compound], in test [1], the Rmax came to 136 RU and the pKd is 3.20.
Take `CC(C)[C@H](C(=O)O[C@H](C#N)c1cccc(Oc2ccccc2)c1)c1ccc(Cl)cc1` [Esfenvalerate]: in the test on GR, the “ToxCast activity against GR” value is “active”.
Consider `O=C(O)CN(CC(=O)O)CC(=O)O` [Nitrilotriacetic acid], for which the “ToxCast activity against AR” value in the test with AR was “active”.
With `CC/C=C\C/C=C\C/C=C\C/C=C\C/C=C\C/C=C\CCC(=O)O` [DHA, Docosahexaenoic acid, reference compound], the Rmax in test [1] is reported as 281 RU.
Regarding `CCCCCCC1CC1CCCCCCCCCC(=O)O` (centres unmarked) [PTA, Phytomonic acid], in test [1], the Rmax was 33.28 RU; the “binding to PPARγ in SPR (in words)” value was “stronger binding than DHA and EPA”; the pKd is 3.99.
`CCCc1cc(C)c(CCCCCCCCCCC(=O)O)o1` [FUA, 11-(3-methyl-5-propylfuran-2-yl)undecanoic acid]: in test [1], the Rmax amounted to 459.3 RU; the “binding to PPARγ in SPR (in words)” value was “stronger binding than DHA and EPA”; the pKd is 3.60.
Regarding `CC1(C)NC(=O)N(c2ccc([N+](=O)[O-])c(C(F)(F)F)c2)C1=O` [Nilutamide], in the test with PR, the “ToxCast activity against PR” value is recorded as “active”.
For `CC/C=C\C/C=C\C/C=C\C/C=C\C/C=C\CCCCCC(=O)O` [DPA, docosapentaenoic acid], in test [1], the Rmax was determined as 2167 RU; the “binding to PPARγ in SPR (in words)” value was “weaker binding than DHA; also recorded: confirmed to bind to PPARγ, weaker than DHA and EPA”; the pKd is 2.40.
